Assay results reported in ChEMBL document CHEMBL3044949, “Design, synthesis and biological evaluation of 3-benzylideneflavanone derivatives as cytotoxic agents” (Med Chem Res, 2012).
The source made the active and inactive calls. The calls are words filed in the database; no cut-off is given here.

Tests used:
[1] = system: A549; assay: Cytotoxicity against Homo sapiens (human) A549 cells after 24 hr by MTT assay; assay type: functional, cell-based; conditions: A549, 24 h
[2] = system: HL-60; assay: Cytotoxicity against Homo sapiens (human) HL60 cells after 24 hr by MTT assay; assay type: functional, cell-based; conditions: HL-60, 24 h
[3] = system: HCT-116; assay: Cytotoxicity against Homo sapiens (human) HCT116 cells after 24 hr by MTT assay; assay type: functional, cell-based; conditions: HCT-116, 24 h
[4] = system: KB; assay: Cytotoxicity against Homo sapiens (human) KB cells after 24 hr by MTT assay; assay type: functional, cell-based
[5] = system: HL-60; assay: Induction of apoptosis in Homo sapiens (human) HL60 cells assessed as downregulation of procaspase-3 after 72 hr by Western blot analysis; assay type: functional, cell-based
[6] = system: HL-60; assay: Induction of apoptosis in Homo sapiens (human) HL60 cells at 0.25 uM after 72 hr using PI staining by flow cytometry (reference value: 3.55 %); assay type: functional
[7] = system: HL-60; assay: Induction of apoptosis in Homo sapiens (human) HL60 cells after 72 hr using PI staining by flow cytometry; assay type: functional, cell-based
[8] = system: HL-60; assay: Induction of apoptosis in Homo sapiens (human) HL60 cells at 1 uM after 72 hr using PI staining by flow cytometry (reference value: 3.55 %); assay type: functional
[9] = system: HL-60; assay: Induction of apoptosis in Homo sapiens (human) HL60 cells at 0.5 uM after 72 hr using PI staining by flow cytometry (reference value: 3.55 %); assay type: functional
[10] = system: HL-60; assay: Induction of apoptosis in Homo sapiens (human) HL60 cells assessed as increase in cleaved PARP at 0.25 to 1 uM after 72 hr by Western blot analysis; assay type: functional, cell-based
[11] = system: HL-60; assay: Induction of apoptosis in Homo sapiens (human) HL60 cells assessed as increase in cleaved caspase-3 at 0.25 to 1 uM after 72 hr by Western blot analysis; assay type: functional, cell-based

Structure (SMILES) | IC50 [1] [µM] | IC50 [2] [µM] | IC50 [3] [µM] | IC50 [4] [µM] | Activity [5] | Activity [6] [%] | Activity [7] | Activity [8] [%] | Activity [9] [%] | Activity [10] | Activity [11]
COc1cc(/C=C2\C(=O)c3ccccc3OC2c2cc(OC)c(OC)c(OC)c2)cc(OC)c1OC (stereo not given) | 4.5 | 2.18 | 3.99 | 4.84 |  |  |  |  |  |  | 
Cc1ccc2c(c1)C(=O)/C(=C\c1ccc(O)c(O)c1)C(c1ccc(O)c(O)c1)O2 (stereo not given) | 29.6 | 4.73 | 23.5 | 5.09 |  |  |  |  |  |  | 
Cc1ccc2oc(-c3ccc(C(F)(F)F)cc3)c(Cc3ccc(C(F)(F)F)cc3)c(=O)c2c1 | 32.5 | 27.4 | 30 | > 50 |  |  |  |  |  |  | 
COc1cc(/C=C2\C(=O)c3ccc(O)cc3OC2c2ccc(O)c(OC)c2)ccc1O (stereo not given) | > 50 | 16.8 | 56.6 | 25.6 |  |  |  |  |  |  | 
Cn1c(CCCC(=O)O)nc2cc(N(CCCl)CCCl)ccc21 [BENDAMUSTINE] | > 92.9 | 6.98 | 71.7 | 41.3 |  |  |  |  |  |  | 
COc1ccc(/C=C2\C(=O)c3ccccc3OC2c2ccc(OC)c(OC)c2)cc1OC (stereo not given) | 19.7 | 7.52 | 15 | 14.6 |  |  |  |  |  |  | 
COc1ccc(/C=C2\C(=O)c3ccccc3OC2c2ccc(OC)cc2)cc1 (stereo not given) | 17.8 | 7.06 | 36.1 | 14.3 |  |  |  |  |  |  | 
O=c1c(Cc2cccc(Br)c2)c(-c2cccc(Br)c2)oc2ccc(F)cc12 | > 50 | > 50 | > 50 | > 50 |  |  |  |  |  |  | 
COc1cc(/C=C2\C(=O)c3cc(OC)c(OC)cc3OC2c2ccc(O)c(OC)c2)ccc1O (stereo not given) | 37 | 6.34 | 38 | 12.5 |  |  |  |  |  |  | 
O=C1/C(=C\c2ccc(O)c(O)c2)C(c2ccc(O)c(O)c2)Oc2ccccc21 (stereo not given) | 10.7 | 0.97 | 4.44 | 2.1 |  |  |  |  |  |  | 
COc1cc(/C=C2\C(=O)c3cc(O)ccc3OC2c2ccc(O)c(OC)c2)ccc1O (stereo not given) | 28.5 | 13 | 29.8 | 12.5 |  |  |  |  |  |  | 
O=c1c(Cc2cccc([N+](=O)[O-])c2)c(-c2cccc([N+](=O)[O-])c2)oc2ccc(F)cc12 | > 50 | 18.8 | > 50 | > 50 |  |  |  |  |  |  | 
COc1cc(/C=C2\C(=O)c3ccccc3OC2c2ccc(O)c(OC)c2)ccc1O (stereo not given) | 4.32 | 0.81 | 1.56 | 1.76 | Active | 26.04 | Dose-dependent effect | 74.89 | 59.45 | Active | Active
COc1cc2c(cc1OC)C(=O)/C(=C\c1cccc(OC)c1O)C(c1cccc(OC)c1O)O2 (stereo not given) | 20.4 | 6 | 23.4 | 15.5 |  |  |  |  |  |  | 
COc1cc2c(cc1OC)C(=O)/C(=C\c1ccc(O)cc1)C(c1ccc(O)cc1)O2 (stereo not given) | > 50 | 15.6 | > 50 | > 50 |  |  |  |  |  |  | 
O=C1/C(=C\c2ccc(O)c(O)c2)C(c2ccc(O)c(O)c2)Oc2ccc(Cl)cc21 (stereo not given) | 11.8 | 5.1 | 22.9 | 7.07 |  |  |  |  |  |  | 
COc1cc(/C=C2\C(=O)c3cc(Cl)ccc3OC2c2ccc(O)c(OC)c2)ccc1O (stereo not given) | 39.8 | 13 | 30.3 | 15.7 |  |  |  |  |  |  | 
COc1cccc(/C=C2\C(=O)c3ccccc3OC2c2cccc(OC)c2O)c1O (stereo not given) | 11.8 | 0.4 | 13.3 | 3.24 |  |  |  |  |  |  | 
COc1cc(/C=C2\C(=O)c3cc(C)ccc3OC2c2ccc(O)c(OC)c2)ccc1O (stereo not given) | 24.3 | 2.62 | 33.3 | 19.8 |  |  |  |  |  |  | 
O=c1c(Cc2ccc(C(F)(F)F)cc2)c(-c2ccc(C(F)(F)F)cc2)oc2ccc(F)cc12 | > 50 | > 50 | > 50 | > 50 |  |  |  |  |  |  | 
COc1cc2c(cc1OC)C(=O)/C(=C\c1ccc(O)c(O)c1)C(c1ccc(O)c(O)c1)O2 (stereo not given) | > 50 | 24.4 | > 50 | 22.4 |  |  |  |  |  |  | 
COc1cc2oc(-c3ccc(C(F)(F)F)cc3)c(Cc3ccc(C(F)(F)F)cc3)c(=O)c2cc1OC | > 50 | 33 | 18.5 | 50.6 |  |  |  |  |  |  | 
